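In this assay, cells in 96-well plates receive the compound at five concentrations for 48 hours. Endpoints are linearly interpolated between the surrounding concentrations. GI50: concentration for 50% inhibition of growth.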 Activity calls are given as the source filed them. Rule as the data show it: active = GI50 up to about 1.1 µM and inactive = higher.
Assays:
Assay in all cases: NCI tumour cell line growth inhibition, 48 h
SNB-75 = tested on: SNB-75
NCI-H226 = tested on: NCI-H226
EKVX = tested on: EKVX
COLO 205 = tested on: COLO 205
T47D = tested on: T47D
U-251 = tested on: U-251
Hs-578T = tested on: Hs-578T
SK-MEL-28 = tested on: SK-MEL-28
MDA-MB-435 = tested on: MDA-MB-435
OVCAR-5 = tested on: OVCAR-5
HCT-15 = tested on: HCT-15
CAKI-1 = tested on: CAKI-1
TK-10 = tested on: TK-10
HCC 2998 = tested on: HCC 2998
NCI-H460 = tested on: NCI-H460
UACC-257 = tested on: UACC-257
MOLT-4 = tested on: MOLT-4
SW-620 = tested on: SW-620
CCRF-CEM = tested on: CCRF-CEM
NCI-H23 = tested on: NCI-H23

Measured: GI50

COc1c2c(cc3oc(C)cc(=O)c13)OC(=N)C(C(N)=O)C2CC(=O)c1ccc(N)cc1 (configuration not stated)
inactive: SNB-75 > 100 µM | NCI-H226 > 100 µM | EKVX > 100 µM | COLO 205 > 100 µM | T47D > 100 µM | U-251 > 100 µM | Hs-578T > 100 µM | SK-MEL-28 > 100 µM | MDA-MB-435 > 100 µM | OVCAR-5 > 100 µM | CAKI-1 > 100 µM | TK-10 > 100 µM | HCC 2998 > 100 µM | NCI-H460 > 100 µM | UACC-257 > 100 µM | MOLT-4 > 100 µM | SW-620 > 100 µM | CCRF-CEM > 100 µM
> 100 µM: HCT-15

O=C(O)COc1cc(-c2ccccc2)nc2cc(F)ccc12
> 100 µM: HCT-15
active: TK-10 0.375 µM
inactive: SNB-75 > 100 µM | NCI-H226 > 100 µM | NCI-H23 > 100 µM | EKVX > 100 µM | COLO 205 > 100 µM | T47D > 100 µM | U-251 > 100 µM | Hs-578T > 100 µM | SK-MEL-28 > 100 µM | MDA-MB-435 > 100 µM | OVCAR-5 > 100 µM | CAKI-1 > 100 µM | HCC 2998 60 µM | NCI-H460 > 100 µM | UACC-257 > 100 µM | MOLT-4 > 100 µM | SW-620 > 100 µM | CCRF-CEM > 100 µM

COc1ccc2c(c1)-c1c(c3cc(OC)ccc3n1CCCN(C)C)CC2
inactive: SNB-75 2.99 µM | NCI-H226 1.84 µM | NCI-H23 16.8 µM | EKVX 13.2 µM | COLO 205 2.02 µM | T47D 5.36 µM | U-251 8.67 µM | Hs-578T 4.29 µM | SK-MEL-28 5.78 µM | MDA-MB-435 5.55 µM | OVCAR-5 13.8 µM | CAKI-1 12.4 µM | TK-10 16.5 µM | HCC 2998 3.13 µM | NCI-H460 10.1 µM | UACC-257 3.48 µM | MOLT-4 5.93 µM | SW-620 11.1 µM | CCRF-CEM 4.46 µM
11.4 µM: HCT-15

CCCCCC(=O)OCC(=O)[C@H]1[C@H](C)C[C@H]2[C@@H]3C[C@H](F)C4=C/C(=N/OC(=O)c5cccc6c(=O)c7ccccc7[nH]c56)C=C[C@]4(C)[C@H]3[C@@H](O)C[C@@]21C
inactive: SNB-75 19.1 µM | NCI-H226 4.78 µM | NCI-H23 29.6 µM | EKVX 25.5 µM | COLO 205 24.3 µM | T47D 19 µM | U-251 45.9 µM | Hs-578T 31.7 µM | MDA-MB-435 23.8 µM | OVCAR-5 32.8 µM | CAKI-1 41.8 µM | TK-10 26.2 µM | HCC 2998 24.7 µM | UACC-257 20 µM | MOLT-4 17.8 µM | SW-620 28.2 µM | CCRF-CEM 89.7 µM
26.6 µM: HCT-15

Nc1onc2c1Cc1c(noc1N)-c1ccccc1-2
43.8 µM: HCT-15
inactive: SNB-75 33.2 µM | NCI-H226 > 100 µM | NCI-H23 53.6 µM | EKVX 16.3 µM | COLO 205 58.6 µM | T47D 27 µM | U-251 57.5 µM | Hs-578T 26.9 µM | SK-MEL-28 > 100 µM | MDA-MB-435 25.2 µM | OVCAR-5 > 100 µM | CAKI-1 44.4 µM | TK-10 > 100 µM | HCC 2998 > 100 µM | NCI-H460 > 100 µM | UACC-257 74.3 µM | MOLT-4 74.8 µM | SW-620 57 µM | CCRF-CEM 42.7 µM

CC(C)C(NC(=O)C(Cc1ccccc1)NC(=O)[C@H]1CCC[C@H]1NC(=O)C(Cc1ccc(OC(C)(C)C)cc1)NC(=O)OC(C)(C)C)C(N)=O (some centres not stated)
inactive: SNB-75 11.4 µM | NCI-H226 22.4 µM | NCI-H23 16.9 µM | EKVX > 100 µM | COLO 205 19.6 µM | T47D 20 µM | U-251 14.2 µM | Hs-578T > 10 µM | SK-MEL-28 18.4 µM | MDA-MB-435 17 µM | OVCAR-5 18.8 µM | CAKI-1 95.9 µM | TK-10 28.5 µM | HCC 2998 16.5 µM | NCI-H460 19.2 µM | UACC-257 > 10 µM | MOLT-4 17.4 µM | SW-620 20.9 µM | CCRF-CEM 16.6 µM
36.1 µM: HCT-15

CC(C)CN1CN(c2ccccc2)C2(CCN(CC(C)(c3ccc(F)cc3)C3OCCO3)CC2)C1=O (configuration not stated)
inactive: SNB-75 7.33 µM | NCI-H226 11.1 µM | NCI-H23 2.09 µM | EKVX 6.01 µM | COLO 205 1.65 µM | T47D 2.75 µM | U-251 4.75 µM | Hs-578T 3.66 µM | SK-MEL-28 3.18 µM | MDA-MB-435 6.62 µM | OVCAR-5 13 µM | CAKI-1 12.1 µM | TK-10 10.8 µM | HCC 2998 2.39 µM | UACC-257 3.04 µM | MOLT-4 2.4 µM | SW-620 3.17 µM | CCRF-CEM 3.55 µM
3.27 µM: HCT-15

CSCCC(NC(=O)Cc1ccc(C(=O)c2ccccc2)cc1)C(=O)O (configuration not stated)
inactive: SNB-75 > 100 µM | NCI-H226 > 100 µM | NCI-H23 > 100 µM | EKVX > 100 µM | COLO 205 > 100 µM | T47D > 100 µM | U-251 > 100 µM | Hs-578T > 100 µM | SK-MEL-28 > 100 µM | MDA-MB-435 > 100 µM | OVCAR-5 > 100 µM | CAKI-1 > 100 µM | TK-10 > 100 µM | HCC 2998 > 100 µM | NCI-H460 > 100 µM | UACC-257 > 100 µM | MOLT-4 > 100 µM | SW-620 > 100 µM | CCRF-CEM > 100 µM
> 100 µM: HCT-15

CC(C)(C(=O)N(C(=O)N1CCN(c2ccccc2)CC1)S(=O)(=O)c1ccccc1)c1ccc(Cl)cc1
7.94 µM: HCT-15
inactive: SNB-75 77.1 µM | NCI-H226 52.4 µM | NCI-H23 16.3 µM | EKVX 13.5 µM | COLO 205 20.7 µM | T47D 29.2 µM | U-251 6.32 µM | Hs-578T 39.1 µM | SK-MEL-28 > 100 µM | MDA-MB-435 51.2 µM | OVCAR-5 42.2 µM | CAKI-1 34.4 µM | TK-10 61.4 µM | HCC 2998 27.7 µM | NCI-H460 28.8 µM | UACC-257 46.7 µM | MOLT-4 3.33 µM | SW-620 7.03 µM | CCRF-CEM 3.94 µM

Cc1nc(O)nc2nc3ccc(Cl)cc3c(NC(C)(CO)CO)c12
inactive: SNB-75 24.2 µM | NCI-H226 > 84.5 µM | NCI-H23 63.5 µM | EKVX 24.9 µM | COLO 205 > 100 µM | T47D 17.6 µM | U-251 36.8 µM | Hs-578T 46.9 µM | SK-MEL-28 > 100 µM | MDA-MB-435 > 100 µM | OVCAR-5 > 100 µM | CAKI-1 13.9 µM | TK-10 41.4 µM | HCC 2998 > 100 µM | NCI-H460 > 71.1 µM | UACC-257 > 75.3 µM | MOLT-4 > 40.8 µM | SW-620 > 100 µM | CCRF-CEM > 26.8 µM
88.3 µM: HCT-15

Oc1nc2c(c(-c3ccc(F)cc3)n1)COC/C2=C\c1ccc(F)cc1
inactive: SNB-75 > 100 µM | NCI-H226 > 100 µM | NCI-H23 > 100 µM | EKVX > 100 µM | COLO 205 > 100 µM | T47D > 100 µM | U-251 > 100 µM | Hs-578T > 100 µM | MDA-MB-435 > 100 µM | OVCAR-5 > 100 µM | CAKI-1 > 100 µM | TK-10 > 100 µM | HCC 2998 > 100 µM | NCI-H460 > 100 µM | UACC-257 > 100 µM | MOLT-4 > 100 µM | SW-620 > 100 µM | CCRF-CEM > 100 µM
> 100 µM: HCT-15

Cc1c2ccccc2c(C)n2c1nc1cc3ccccc3cc12
active: OVCAR-5 1.02 µM | NCI-H460 1.05 µM
inactive: SNB-75 1.57 µM | NCI-H23 1.29 µM | EKVX 1.64 µM | COLO 205 1.34 µM | T47D 6.44 µM | U-251 1.65 µM | Hs-578T 1.25 µM | SK-MEL-28 1.46 µM | MDA-MB-435 1.61 µM | CAKI-1 1.24 µM | TK-10 2.15 µM | HCC 2998 1.78 µM | UACC-257 3.3 µM | MOLT-4 1.32 µM | SW-620 1.56 µM | CCRF-CEM 1.57 µM
1.36 µM: HCT-15

O=c1c2cc([N+](=O)[O-])cnc2sn1-c1ccc(Br)cc1
57.4 µM: HCT-15
inactive: SNB-75 73.5 µM | NCI-H226 73.6 µM | NCI-H23 29.6 µM | EKVX 42.5 µM | COLO 205 47.2 µM | T47D 6.32 µM | U-251 34.4 µM | Hs-578T 23.7 µM | SK-MEL-28 > 100 µM | MDA-MB-435 > 100 µM | OVCAR-5 38.4 µM | TK-10 > 100 µM | HCC 2998 91 µM | NCI-H460 66.8 µM | UACC-257 > 100 µM | MOLT-4 32.8 µM | SW-620 28.3 µM | CCRF-CEM 22.9 µM

COC(=O)C1=C(OC(=O)c2ccccc2)C(C(=O)OC)[C@]2(O)[C@@H](C(=O)OC)[C@H]1C[C@@H](c1ccccc1)[C@@H]2C(=O)OC (some centres not stated)
inactive: NCI-H226 2.56 µM | NCI-H23 6.32 µM | EKVX 34 µM | COLO 205 10.2 µM | T47D 6.52 µM | U-251 5.24 µM | Hs-578T 13.8 µM | SK-MEL-28 12.2 µM | MDA-MB-435 2.45 µM | OVCAR-5 22.9 µM | CAKI-1 14.2 µM | TK-10 17.3 µM | HCC 2998 7.21 µM | NCI-H460 9.68 µM | UACC-257 5.62 µM | MOLT-4 3.64 µM | SW-620 5.12 µM
7.82 µM: HCT-15
active: CCRF-CEM 0.716 µM
